Test results taken from article PMC5218480 (PLoS ONE, 2017).

System: MV-4-11 cells
Experiment: Gene expression microarray analysis (Affymetrix PrimeView) and GSEA
Assay type: cell-based, human
Design: RFU PODN (11730768_x_at) / Fold change /veh PODN (11730768_x_at) / RFU LINC00158 (11744669_a_at) / Fold change /veh LINC00158 (11744669_a_at) / RFU DUSP10 (11751237_a_at) / Fold change /veh DUSP10 (11751237_a_at) / RFU ID3 (11757404_x_at) / Fold change /veh ID3 (11757404_x_at) / RFU PLEKHG5 (11737974_s_at) / Fold change /veh PLEKHG5 (11737974_s_at) / RFU LRRC4B (11730491_at) / Fold change /veh LRRC4B (11730491_at) / RFU GIMAP4 (11747438_a_at) / Fold change /veh GIMAP4 (11747438_a_at) / RFU KRT8 (11758183_x_at) / Fold change /veh KRT8 (11758183_x_at) / RFU CNN1 (11734310_a_at) / Fold change /veh CNN1 (11734310_a_at) / RFU VPS37D (11726825_at) / Fold change /veh VPS37D (11726825_at) / RFU C10orf10 (11716522_x_at) / Fold change /veh C10orf10 (11716522_x_at) / RFU KIR2DL2 /// KIR2DL4 /// KIR2DL5A /// KIR2DL5B /// KIR2DS1 /// KIR2DS2 /// KIR2DS3 /// KIR2DS4 /// KIR3DL3 /// KIR3DL3 /// KIR3DS1 (11738374_at) / Fold change /veh KIR2DL2 /// KIR2DL4 /// KIR2DL5A /// KIR2DL5B /// KIR2DS1 /// KIR2DS2 /// KIR2DS3 /// KIR2DS4 /// KIR3DL3 /// KIR3DL3 /// KIR3DS1 (11738374_at) / RFU C1QL1 (11718748_at) / Fold change /veh C1QL1 (11718748_at) / RFU TMPRSS4 (11747572_a_at) / Fold change /veh TMPRSS4 (11747572_a_at) / RFU HAMP (11756126_x_at) / Fold change /veh HAMP (11756126_x_at) / RFU RNFT2 (11725882_a_at) / Fold change /veh RNFT2 (11725882_a_at) / RFU NR4A2 (11747474_a_at) / Fold change /veh NR4A2 (11747474_a_at) / RFU ABCC12 (11746883_a_at) / Fold change /veh ABCC12 (11746883_a_at) / RFU TMEM136 (11760407_x_at) / Fold change /veh TMEM136 (11760407_x_at) / RFU CLDN22 /// WWC2 (11732394_at) / Fold change /veh CLDN22 /// WWC2 (11732394_at) / RFU HLA-DPB1 (11760878_x_at) / Fold change /veh HLA-DPB1 (11760878_x_at) / RFU SPINT1 (11716480_a_at) / Fold change /veh SPINT1 (11716480_a_at) / RFU GAP43 (11754022_s_at) / Fold change /veh GAP43 (11754022_s_at) / RFU A4GNT (11735810_at) / Fold change /veh A4GNT (11735810_at) / RFU PRB3 (11715151_x_at) / Fold change /veh PRB3 (11715151_x_at) / RFU TUBB4B (11761932_at) / Fold change /veh TUBB4B (11761932_at) / RFU CAPN14 (11732068_a_at) / Fold change /veh CAPN14 (11732068_a_at) / RFU TMCC2 (11721928_a_at) / Fold change /veh TMCC2 (11721928_a_at) / RFU IRGQ (11745062_a_at) / Fold change /veh IRGQ (11745062_a_at) / RFU FAM174B (11720279_a_at) / Fold change /veh FAM174B (11720279_a_at) / RFU TMPRSS4 (11748680_a_at) / Fold change /veh TMPRSS4 (11748680_a_at) / RFU FAM212B (11763350_a_at) / Fold change /veh FAM212B (11763350_a_at) / RFU PLEKHG5 (11743358_a_at) / Fold change /veh PLEKHG5 (11743358_a_at) / RFU ZSCAN30 (11745921_a_at) / Fold change /veh ZSCAN30 (11745921_a_at) / RFU CMKLR1 (11741424_a_at) / Fold change /veh CMKLR1 (11741424_a_at) / RFU LOC101060620 /// MAPK8IP1 (11723275_at) / Fold change /veh LOC101060620 /// MAPK8IP1 (11723275_at) / RFU SPTSSB (11747773_x_at) / Fold change /veh SPTSSB (11747773_x_at) / RFU PRSS12 (11739890_at) / Fold change /veh PRSS12 (11739890_at) / RFU BIN1 (11741810_x_at) / Fold change /veh BIN1 (11741810_x_at) / RFU WNT11 (11732464_a_at) / Fold change /veh WNT11 (11732464_a_at) / RFU C10orf10 (11716521_a_at) / Fold change /veh C10orf10 (11716521_a_at) / RFU C5orf56 (11738089_at) / Fold change /veh C5orf56 (11738089_at) / RFU CYB561 (11721691_x_at) / Fold change /veh CYB561 (11721691_x_at) / RFU ANKRD19P (11752326_a_at) / Fold change /veh ANKRD19P (11752326_a_at) / RFU OR2T12 /// OR2T33 /// OR2T8 (11738714_s_at) / Fold change /veh OR2T12 /// OR2T33 /// OR2T8 (11738714_s_at) / RFU VCAN (11748164_a_at) / Fold change /veh VCAN (11748164_a_at) / RFU JSRP1 (11732532_at) / Fold change /veh JSRP1 (11732532_at) / RFU KRTAP10-11 (11738290_x_at) / Fold change /veh KRTAP10-11 (11738290_x_at) / RFU MYO3A (11730013_a_at) / Fold change /veh MYO3A (11730013_a_at) / RFU EBF3 (11725865_a_at) / Fold change /veh EBF3 (11725865_a_at) / RFU CAMK2N1 (11719241_x_at) / Fold change /veh CAMK2N1 (11719241_x_at) / RFU C5orf56 (11738088_a_at) / Fold change /veh C5orf56 (11738088_a_at) / RFU OLFML3 (11715873_a_at) / Fold change /veh OLFML3 (11715873_a_at) / RFU LOC100653217 /// NTM (11731650_a_at) / Fold change /veh LOC100653217 /// NTM (11731650_a_at) / RFU MAPK11 (11762145_a_at) / Fold change /veh MAPK11 (11762145_a_at) / RFU FIZ1 (11724087_x_at) / Fold change /veh FIZ1 (11724087_x_at) / RFU OASL (11726364_x_at) / Fold change /veh OASL (11726364_x_at) / RFU SOX15 (11748057_x_at) / Fold change /veh SOX15 (11748057_x_at) / RFU CD79A (11719716_a_at) / Fold change /veh CD79A (11719716_a_at) / RFU HIST1H1D (11736915_at) / Fold change /veh HIST1H1D (11736915_at) / RFU CASKIN2 (11723855_a_at) / Fold change /veh CASKIN2 (11723855_a_at) / RFU LOC730098 (11760151_x_at) / Fold change /veh LOC730098 (11760151_x_at) / RFU OR4N2 (11742367_at) / Fold change /veh OR4N2 (11742367_at) / RFU PRRT2 (11749266_a_at) / Fold change /veh PRRT2 (11749266_a_at) / RFU SNX32 (11753110_a_at) / Fold change /veh SNX32 (11753110_a_at) / RFU CDHR5 (11726645_a_at) / Fold change /veh CDHR5 (11726645_a_at) / RFU RCAN1 (11760418_a_at) / Fold change /veh RCAN1 (11760418_a_at) / RFU FAM167A (11723789_a_at) / Fold change /veh FAM167A (11723789_a_at) / RFU FAM26E (11764081_at) / Fold change /veh FAM26E (11764081_at) / RFU ISYNA1 (11749810_s_at) / Fold change /veh ISYNA1 (11749810_s_at) / RFU ACY1 (11761880_at) / Fold change /veh ACY1 (11761880_at) / RFU 11764098_at / Fold change /veh 11764098_at / RFU SAMD14 (11745864_x_at) / Fold change /veh SAMD14 (11745864_x_at) / RFU NPB (11741838_a_at) / Fold change /veh NPB (11741838_a_at) / RFU TMPRSS6 (11731388_a_at) / Fold change /veh TMPRSS6 (11731388_a_at) / RFU KRTAP10-2 (11738614_at) / Fold change /veh KRTAP10-2 (11738614_at) / RFU ARHGAP8 /// PRR5-ARHGAP8 (11727945_x_at) / Fold change /veh ARHGAP8 /// PRR5-ARHGAP8 (11727945_x_at) / RFU KRTAP5-7 /// NADSYN1 (11734609_at) / Fold change /veh KRTAP5-7 /// NADSYN1 (11734609_at) / RFU RASL12 (11751679_a_at) / Fold change /veh RASL12 (11751679_a_at) / RFU CDKN2B (11736163_a_at) / Fold change /veh CDKN2B (11736163_a_at) / RFU PRF1 (11729649_at) / Fold change /veh PRF1 (11729649_at) / RFU, ZNF638 /// ZNF638-IT1 / Fold change vs veh, ZNF638 /// ZNF638-IT1 / RFU, PANK3 / Fold change vs veh, PANK3 / RFU, SH3YL1 / Fold change vs veh, SH3YL1 / RFU, ZEB2 / Fold change vs veh, ZEB2 / RFU, NRIP1 / Fold change vs veh, NRIP1 / RFU, PTTG1IP / Fold change vs veh, PTTG1IP / RFU, CAPN2 / Fold change vs veh, CAPN2 / RFU, MED14 / Fold change vs veh, MED14 / RFU, SNORA58 / Fold change vs veh, SNORA58 / RFU, C1orf63 / Fold change vs veh, C1orf63 / RFU, LRRFIP1 / Fold change vs veh, LRRFIP1 / RFU, NDUFAF7 / Fold change vs veh, NDUFAF7 / RFU, SLC12A2 / Fold change vs veh, SLC12A2 / RFU, IBTK / Fold change vs veh, IBTK / RFU, ESF1 / Fold change vs veh, ESF1 / Fold change vs veh, TMEM50B / RFU, TAOK1 / Fold change vs veh, TAOK1 / RFU, ACBD3 / Fold change vs veh, ACBD3 / RFU, TMA16 / Fold change vs veh, TMA16 / RFU, RWDD3 / Fold change vs veh, RWDD3 / RFU, BCAT1 / Fold change vs veh, BCAT1 / RFU, EDEM3 / Fold change vs veh, EDEM3 / RFU, TMEM33 / Fold change vs veh, TMEM33 / RFU, WDR75 / Fold change vs veh, WDR75 / RFU, AHCTF1 / Fold change vs veh, AHCTF1 / RFU, TFRC / Fold change vs veh, TFRC / RFU, ZDHHC17 / Fold change vs veh, ZDHHC17 / RFU, NOM1 / Fold change vs veh, NOM1 / RFU, ARL8B / Fold change vs veh, ARL8B / RFU, ZBTB11 / Fold change vs veh, ZBTB11 / RFU, TAMM41 / Fold change vs veh, TAMM41 / RFU, KIAA1704 /// LOC100996395 / Fold change vs veh, KIAA1704 /// LOC100996395 / RFU, ING1 / Fold change vs veh, ING1 / RFU, TRMT61B / Fold change vs veh, TRMT61B / RFU, FUBP3 / Fold change vs veh, FUBP3 / RFU, TP53 / Fold change vs veh, TP53 / RFU, TNKS2 / Fold change vs veh, TNKS2 / RFU, ZFP14 / Fold change vs veh, ZFP14 / RFU, ACTR2 / Fold change vs veh, ACTR2 / RFU, PPP3R1 / Fold change vs veh, PPP3R1 / RFU, PIK3R1 / Fold change vs veh, PIK3R1 / RFU, HNRNPA1 / Fold change vs veh, HNRNPA1 / RFU, RNF170 / Fold change vs veh, RNF170 / RFU, ZNF28 / Fold change vs veh, ZNF28 / RFU, RNGTT / Fold change vs veh, RNGTT / RFU, OGT / Fold change vs veh, OGT / RFU, BRD1 / Fold change vs veh, BRD1 / RFU, MARS / Fold change vs veh, MARS / RFU, ZNF655 / Fold change vs veh, ZNF655 / RFU, FAHD1 / Fold change vs veh, FAHD1 / RFU, BDP1 / Fold change vs veh, BDP1 / RFU, LRRCC1 / Fold change vs veh, LRRCC1 / RFU, ARID1A / Fold change vs veh, ARID1A / RFU, ZNF146 / Fold change vs veh, ZNF146 / RFU, ZNF330 / Fold change vs veh, ZNF330 / RFU, GPN3 / Fold change vs veh, GPN3 / RFU, C9orf123 / Fold change vs veh, C9orf123 / RFU, N4BP2L2 / Fold change vs veh, N4BP2L2 / RFU, ARFIP1 / Fold change vs veh, ARFIP1 / RFU, FAM179B / Fold change vs veh, FAM179B / RFU, BCL10 / Fold change vs veh, BCL10 / RFU, UHRF1BP1L / Fold change vs veh, UHRF1BP1L / RFU, BET1 / Fold change vs veh, BET1 / RFU, CNOT2 / Fold change vs veh, CNOT2 / RFU, ZNF268 / Fold change vs veh, ZNF268 / Fold change vs veh, ZNF507 / RFU, DGCR2 / Fold change vs veh, DGCR2 / RFU, WDSUB1 / Fold change vs veh, WDSUB1 / Fold change vs veh, HSP90B1 /// MIR3652 / RFU, ADSS / Fold change vs veh, ADSS / RFU, GK / Fold change vs veh, GK / RFU, ZNF148 / Fold change vs veh, ZNF148 / RFU, TAF9 / Fold change vs veh, TAF9 / RFU, SLC1A5 / Fold change vs veh, SLC1A5 / RFU, SLMO2 / Fold change vs veh, SLMO2 / RFU, ABCC4 / Fold change vs veh, ABCC4 / RFU, LOC101060439 /// RAP1B / Fold change vs veh, LOC101060439 /// RAP1B / RFU, RFX7 / Fold change vs veh, RFX7 / RFU, GTPBP10 / Fold change vs veh, GTPBP10 / RFU, CNEP1R1 / Fold change vs veh, CNEP1R1 / RFU, BIVM-ERCC5 /// ERCC5 / Fold change vs veh, BIVM-ERCC5 /// ERCC5 / RFU, ILF3 / Fold change vs veh, ILF3 / RFU 11762660_at / Fold change /veh 11762660_at / RFU VCAN (11757783_s_at) / Fold change /veh VCAN (11757783_s_at) / RFU DDX43 (11728927_at) / Fold change /veh DDX43 (11728927_at) / RFU KRT8 (11758188_x_at) / Fold change /veh KRT8 (11758188_x_at) / RFU NKD1 (11759106_at) / Fold change /veh NKD1 (11759106_at) / RFU SRD5A1 (11742802_a_at) / Fold change /veh SRD5A1 (11742802_a_at) / RFU TPSAB1 /// TPSB2 (11721975_s_at) / Fold change /veh TPSAB1 /// TPSB2 (11721975_s_at) / RFU GSTM3 (11746129_a_at) / Fold change /veh GSTM3 (11746129_a_at) / RFU IL23R (11737362_x_at) / Fold change /veh IL23R (11737362_x_at) / RFU TMEM51 (11727254_a_at) / Fold change /veh TMEM51 (11727254_a_at) / RFU PIWIL2 (11732686_x_at) / Fold change /veh PIWIL2 (11732686_x_at) / RFU ORM1 (11744905_x_at) / Fold change /veh ORM1 (11744905_x_at) / RFU CCDC152 (11743942_at) / Fold change /veh CCDC152 (11743942_at) / RFU ECM1 (11717891_a_at) / Fold change /veh ECM1 (11717891_a_at) / RFU IL23R (11748794_a_at) / Fold change /veh IL23R (11748794_a_at) / RFU TNFAIP8L3 (11732012_x_at) / Fold change /veh TNFAIP8L3 (11732012_x_at) / RFU MBOAT4 (11741988_at) / Fold change /veh MBOAT4 (11741988_at) / RFU 11764193_at / Fold change /veh 11764193_at / RFU TMEM53 (11763286_at) / Fold change /veh TMEM53 (11763286_at) / RFU MAGEB2 (11727129_at) / Fold change /veh MAGEB2 (11727129_at) / RFU TMEM200A (11744735_a_at) / Fold change /veh TMEM200A (11744735_a_at) / RFU CCDC152 (11751479_a_at) / Fold change /veh CCDC152 (11751479_a_at) / RFU FAM211A (11726209_a_at) / Fold change /veh FAM211A (11726209_a_at) / RFU RGS16 (11746705_a_at) / Fold change /veh RGS16 (11746705_a_at) / RFU VCAN (11755009_s_at) / Fold change /veh VCAN (11755009_s_at) / RFU RHOB (11743442_s_at) / Fold change /veh RHOB (11743442_s_at) / RFU RGS16 (11720943_a_at) / Fold change /veh RGS16 (11720943_a_at) / RFU RGS16 (11720944_at) / Fold change /veh RGS16 (11720944_at) / RFU, VPS4B / Fold change vs veh, VPS4B / RFU, CREB1 / Fold change vs veh, CREB1 / RFU, DNAJC13 / Fold change vs veh, DNAJC13 / RFU, GNAQ / Fold change vs veh, GNAQ / RFU, CDK5R1 / Fold change vs veh, CDK5R1 / RFU, ZRANB3 / Fold change vs veh, ZRANB3 / RFU, CUL4A / Fold change vs veh, CUL4A / RFU, CCNY / Fold change vs veh, CCNY / RFU, UFL1 / Fold change vs veh, UFL1 / RFU, COG3 / Fold change vs veh, COG3 / RFU, DIAPH2 / Fold change vs veh, DIAPH2 / RFU, SKA2 / Fold change vs veh, SKA2 / RFU, AFF3 / Fold change vs veh, AFF3 / RFU, LMF1 / Fold change vs veh, LMF1 / RFU, IPO11 / Fold change vs veh, IPO11 / RFU, DFFB / Fold change vs veh, DFFB / RFU, FOXP1 / Fold change vs veh, FOXP1 / RFU, CARD8 / Fold change vs veh, CARD8 / RFU, STRN3 / Fold change vs veh, STRN3 / RFU, ADK / Fold change vs veh, ADK / RFU, RASSF2 / Fold change vs veh, RASSF2 / RFU, WIPF1 / Fold change vs veh, WIPF1 / RFU, LARP1B / Fold change vs veh, LARP1B / RFU, RASA1 / Fold change vs veh, RASA1 / RFU, RB1 / Fold change vs veh, RB1 / RFU, PPFIA1 / Fold change vs veh, PPFIA1 / RFU, MAT2A / Fold change vs veh, MAT2A / RFU, CCT5 / Fold change vs veh, CCT5 / RFU, WDR92 / Fold change vs veh, WDR92 / RFU, CUX1 / Fold change vs veh, CUX1 / RFU, TTC7A / Fold change vs veh, TTC7A / RFU, TMEM135 / Fold change vs veh, TMEM135 / RFU, DEPTOR / Fold change vs veh, DEPTOR / RFU, CPM / Fold change vs veh, CPM / RFU, DNAJB6 / Fold change vs veh, DNAJB6 / RFU, CACNA2D3 / Fold change vs veh, CACNA2D3 / RFU, DTX4 / Fold change vs veh, DTX4 / RFU, TFCP2 / Fold change vs veh, TFCP2 / RFU, GMCL1 /// GMCL1P1 / Fold change vs veh, GMCL1 /// GMCL1P1 / RFU, AEBP2 / Fold change vs veh, AEBP2 / RFU, SNHG1 /// SNORD22 /// SNORD25 /// SNORD26 /// SNORD27 /// SNORD28 /// SNORD29 /// SNORD31 / Fold change vs veh, SNHG1 /// SNORD22 /// SNORD25 /// SNORD26 /// SNORD27 /// SNORD28 /// SNORD29 /// SNORD31 / Fold change (Aza/veh), C12orf56 (ProbeSet 11735607_a_at) / Fold change (ACY-1035/veh), C12orf56 (ProbeSet 11735607_a_at) / Fold change (Aza/veh), FGFR1OP (ProbeSet 11751329_s_at) / Fold change (ACY-1035/veh), FGFR1OP (ProbeSet 11751329_s_at) / Fold change (Aza/veh), VPS36 (ProbeSet 11739960_a_at) / Fold change (ACY-1035/veh), VPS36 (ProbeSet 11739960_a_at) / RFU SYPL1 (11715823_x_at) / Fold change /veh SYPL1 (11715823_x_at) / RFU IGFBP7 (11715501_s_at) / Fold change /veh IGFBP7 (11715501_s_at) / RFU REEP3 (11722064_at) / Fold change /veh REEP3 (11722064_at) / RFU IGLL1 (11728026_x_at) / Fold change /veh IGLL1 (11728026_x_at): dose or concentration left out as unconfirmed
Conditions: ProbeSet 11750457_a_at; LIST B

Nc1ncn([C@@H]2O[C@H](CO)[C@@H](O)[C@H]2O)c(=O)n1 [azacitidine]
RFU, GTPBP10: 30.84 RFU
